From the supplement of paper PMC10307832

Legend:
Test in all cases: relative viability (nuclei count vs DMSO), 5 days (fraction); higher = more cells survive
EPLC-272H = tested on: EPLC-272H
In short: (§1)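 Lung cancer cell lines, seeded in 1536-well plates, were treated the following day by pin tool with a single drug or with five library-drug doses (not always all listed) in √10 steps on top of a fixed anchor-drug dose. Cells were fixed and nuclei stained in one step after 5 days, and nuclei were counted. Relative viability is the nuclei count for treated wells divided by that for vehicle wells, reported as medians of duplicate plates.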

UMC-11 = tested on: UMC-11
In short: as §1

NCI-H2085 = tested on: NCI-H2085
In short: as §1

LC-2-ad = tested on: LC-2-ad
In short: as §1

COR-L 105 = tested on: COR-L 105
In short: as §1

SK-LU-1 = tested on: SK-LU-1
In short: as §1

NCI-H1915 = tested on: NCI-H1915
In short: as §1

HOP-62 = tested on: HOP-62
In short: as §1

NCI-H1666 = tested on: NCI-H1666
In short: as §1

NCI-H1944 = tested on: NCI-H1944
In short: as §1

LU99A = tested on: LU99A
In short: as §1

NCI-H2170 = tested on: NCI-H2170
In short: as §1

NCI-H358 = tested on: NCI-H358
In short: as §1

HCC-78 = tested on: HCC-78
In short: as §1

A-427 = tested on: A-427
In short: as §1

NCI-H460 = tested on: NCI-H460
In short: as §1

HCC-366 = tested on: HCC-366
In short: as §1

NCI-H2009 = tested on: NCI-H2009
In short: as §1

LXF-289 = tested on: LXF-289
In short: as §1

NCI-H1793 = tested on: NCI-H1793
In short: as §1

NCI-H1792 = tested on: NCI-H1792
In short: as §1

Structure (SMILES): COc1nc(C)cnc1NS(=O)(=O)c1cccnc1-c1ccc(-c2nnco2)cc1 [Zibotentan] + Cc1nc(NC(=O)N2CCC[C@H]2C(N)=O)sc1-c1ccnc(C(C)(C)C(F)(F)F)c1 [Alpelisib] (partner 2 µM)
- relative viability (EPLC-272H; first compound 0.08 µM): 0.805
- relative viability (EPLC-272H; first compound 0.253 µM): 0.908
- relative viability (EPLC-272H; first compound 0.8 µM): 0.979
- relative viability (EPLC-272H; first compound 2.53 µM): 0.943
- relative viability (UMC-11; first compound 0.08 µM): 0.861
- relative viability (UMC-11; first compound 0.253 µM): 0.961
- relative viability (UMC-11; first compound 0.8 µM): 0.925
- relative viability (UMC-11; first compound 2.53 µM): 0.971
- relative viability (NCI-H2085; first compound 0.08 µM): 0.93
- relative viability (NCI-H2085; first compound 0.253 µM): 0.939
- relative viability (NCI-H2085; first compound 0.8 µM): 1.06
- relative viability (NCI-H2085; first compound 2.53 µM): 0.932
- relative viability (LC-2-ad; first compound 0.08 µM): 0.852
- relative viability (LC-2-ad; first compound 0.253 µM): 0.869
- relative viability (LC-2-ad; first compound 0.8 µM): 0.92
- relative viability (LC-2-ad; first compound 2.53 µM): 1.03
- relative viability (COR-L 105; first compound 0.08 µM): 1.13
- relative viability (COR-L 105; first compound 0.253 µM): 0.892
- relative viability (COR-L 105; first compound 0.8 µM): 1.21
- relative viability (COR-L 105; first compound 2.53 µM): 0.93
- relative viability (SK-LU-1; first compound 0.08 µM): 1.08
- relative viability (SK-LU-1; first compound 0.253 µM): 0.629
- relative viability (SK-LU-1; first compound 0.8 µM): 1.12
- relative viability (SK-LU-1; first compound 2.53 µM): 0.907
- relative viability (NCI-H1915; first compound 0.08 µM): 1.14
- relative viability (NCI-H1915; first compound 0.253 µM): 1.1
- relative viability (NCI-H1915; first compound 0.8 µM): 1.09
- relative viability (NCI-H1915; first compound 2.53 µM): 1.03
- relative viability (HOP-62; first compound 0.08 µM): 1.01
- relative viability (HOP-62; first compound 0.253 µM): 1.03
- relative viability (HOP-62; first compound 0.8 µM): 1.12
- relative viability (HOP-62; first compound 2.53 µM): 0.911
- relative viability (NCI-H1666; first compound 0.08 µM): 1.12
- relative viability (NCI-H1666; first compound 0.253 µM): 0.724
- relative viability (NCI-H1666; first compound 0.8 µM): 1.18
- relative viability (NCI-H1666; first compound 2.53 µM): 0.993
- relative viability (NCI-H1944; first compound 0.08 µM): 0.915
- relative viability (NCI-H1944; first compound 0.253 µM): 0.808
- relative viability (NCI-H1944; first compound 0.8 µM): 0.756
- relative viability (NCI-H1944; first compound 2.53 µM): 0.888
- relative viability (LU99A; first compound 0.08 µM): 0.516
- relative viability (LU99A; first compound 0.253 µM): 0.58
- relative viability (LU99A; first compound 0.8 µM): 0.545
- relative viability (LU99A; first compound 2.53 µM): 0.58
- relative viability (NCI-H2170; first compound 0.08 µM): 0.802
- relative viability (NCI-H2170; first compound 0.253 µM): 0.791
- relative viability (NCI-H2170; first compound 0.8 µM): 0.889
- relative viability (NCI-H2170; first compound 2.53 µM): 0.835
- relative viability (NCI-H358; first compound 0.08 µM): 1
- relative viability (NCI-H358; first compound 0.8 µM): 0.891
- relative viability (NCI-H358; first compound 2.53 µM): 0.848
- relative viability (HCC-78; first compound 0.08 µM): 0.342
- relative viability (HCC-78; first compound 0.253 µM): 0.342
- relative viability (HCC-78; first compound 0.8 µM): 0.23
- relative viability (HCC-78; first compound 2.53 µM): 0.374
- relative viability (A-427; first compound 0.08 µM): 1.08
- relative viability (A-427; first compound 0.253 µM): 1.14
- relative viability (A-427; first compound 0.8 µM): 1.09
- relative viability (A-427; first compound 2.53 µM): 1.08
- relative viability (NCI-H460; first compound 0.08 µM): 0.58
- relative viability (NCI-H460; first compound 0.8 µM): 0.57
- relative viability (NCI-H460; first compound 2.53 µM): 0.452
- relative viability (HCC-366; first compound 0.08 µM): 0.561
- relative viability (HCC-366; first compound 0.253 µM): 0.373
- relative viability (HCC-366; first compound 0.8 µM): 0.474
- relative viability (HCC-366; first compound 2.53 µM): 0.497
- relative viability (NCI-H2009; first compound 0.08 µM): 1.14
- relative viability (NCI-H2009; first compound 0.253 µM): 1.1
- relative viability (NCI-H2009; first compound 0.8 µM): 1.18
- relative viability (NCI-H2009; first compound 2.53 µM): 1.2
- relative viability (LXF-289; first compound 0.08 µM): 1.03
- relative viability (LXF-289; first compound 0.253 µM): 1.04
- relative viability (LXF-289; first compound 0.8 µM): 1.11
- relative viability (LXF-289; first compound 2.53 µM): 1.09
- relative viability (NCI-H1793; first compound 0.08 µM): 0.821
- relative viability (NCI-H1793; first compound 0.253 µM): 0.53
- relative viability (NCI-H1793; first compound 0.8 µM): 0.852
- relative viability (NCI-H1793; first compound 2.53 µM): 0.713
- relative viability (NCI-H1792; first compound 0.08 µM): 0.621
- relative viability (NCI-H1792; first compound 0.253 µM): 0.58
- relative viability (NCI-H1792; first compound 0.8 µM): 0.559
- relative viability (NCI-H1792; first compound 2.53 µM): 0.648

Structure (SMILES): COc1nc(C)cnc1NS(=O)(=O)c1cccnc1-c1ccc(-c2nnco2)cc1 [Zibotentan] + CS(=O)(=O)CCNCc1ccc(-c2ccc3ncnc(Nc4ccc(OCc5cccc(F)c5)c(Cl)c4)c3c2)o1 [Lapatinib] (partner 2 µM)
- relative viability (EPLC-272H; first compound 0.08 µM): 0.982
- relative viability (EPLC-272H; first compound 0.253 µM): 0.894
- relative viability (EPLC-272H; first compound 0.8 µM): 0.919
- relative viability (EPLC-272H; first compound 2.53 µM): 0.869
- relative viability (UMC-11; first compound 0.08 µM): 0.919
- relative viability (UMC-11; first compound 0.253 µM): 0.86
- relative viability (UMC-11; first compound 0.8 µM): 0.967
- relative viability (UMC-11; first compound 2.53 µM): 1.06
- relative viability (NCI-H2085; first compound 0.08 µM): 0.796
- relative viability (NCI-H2085; first compound 0.253 µM): 0.837
- relative viability (NCI-H2085; first compound 0.8 µM): 0.764
- relative viability (NCI-H2085; first compound 2.53 µM): 0.95
- relative viability (LC-2-ad; first compound 0.08 µM): 0.962
- relative viability (LC-2-ad; first compound 0.253 µM): 0.944
- relative viability (LC-2-ad; first compound 0.8 µM): 1.06
- relative viability (LC-2-ad; first compound 2.53 µM): 1.01
- relative viability (COR-L 105; first compound 0.08 µM): 0.394
- relative viability (COR-L 105; first compound 0.253 µM): 0.35
- relative viability (COR-L 105; first compound 0.8 µM): 0.394
- relative viability (COR-L 105; first compound 2.53 µM): 0.4
- relative viability (SK-LU-1; first compound 0.08 µM): 0.831
- relative viability (SK-LU-1; first compound 0.253 µM): 0.766
- relative viability (SK-LU-1; first compound 0.8 µM): 0.928
- relative viability (SK-LU-1; first compound 2.53 µM): 0.878
- relative viability (NCI-H1915; first compound 0.08 µM): 1.03
- relative viability (NCI-H1915; first compound 0.253 µM): 0.934
- relative viability (NCI-H1915; first compound 0.8 µM): 0.963
- relative viability (NCI-H1915; first compound 2.53 µM): 1.03
- relative viability (HOP-62; first compound 0.08 µM): 0.957
- relative viability (HOP-62; first compound 0.253 µM): 1.12
- relative viability (HOP-62; first compound 0.8 µM): 1.22
- relative viability (HOP-62; first compound 2.53 µM): 1.25
- relative viability (NCI-H1666; first compound 0.08 µM): 0.63
- relative viability (NCI-H1666; first compound 0.253 µM): 0.435
- relative viability (NCI-H1666; first compound 0.8 µM): 0.495
- relative viability (NCI-H1666; first compound 2.53 µM): 0.688
- relative viability (NCI-H1944; first compound 0.08 µM): 1.06
- relative viability (NCI-H1944; first compound 0.253 µM): 0.7
- relative viability (NCI-H1944; first compound 0.8 µM): 0.747
- relative viability (NCI-H1944; first compound 2.53 µM): 0.762
- relative viability (LU99A; first compound 0.08 µM): 1.02
- relative viability (LU99A; first compound 0.253 µM): 1.01
- relative viability (LU99A; first compound 0.8 µM): 1.05
- relative viability (LU99A; first compound 2.53 µM): 0.949
- relative viability (NCI-H2170; first compound 0.08 µM): 0.27
- relative viability (NCI-H2170; first compound 0.253 µM): 0.264
- relative viability (NCI-H2170; first compound 0.8 µM): 0.251
- relative viability (NCI-H2170; first compound 2.53 µM): 0.285
- relative viability (NCI-H358; first compound 0.08 µM): 0.453
- relative viability (NCI-H358; first compound 0.8 µM): 0.469
- relative viability (NCI-H358; first compound 2.53 µM): 0.503
- relative viability (HCC-78; first compound 0.08 µM): 0.844
- relative viability (HCC-78; first compound 0.253 µM): 0.701
- relative viability (HCC-78; first compound 0.8 µM): 0.847
- relative viability (HCC-78; first compound 2.53 µM): 0.788
- relative viability (A-427; first compound 0.08 µM): 1.08
- relative viability (A-427; first compound 0.253 µM): 1.06
- relative viability (A-427; first compound 0.8 µM): 1.05
- relative viability (A-427; first compound 2.53 µM): 0.984
- relative viability (NCI-H460; first compound 0.08 µM): 1.04
- relative viability (NCI-H460; first compound 0.8 µM): 1.03
- relative viability (NCI-H460; first compound 2.53 µM): 1.12
- relative viability (HCC-366; first compound 0.08 µM): 1.17
- relative viability (HCC-366; first compound 0.253 µM): 0.955
- relative viability (HCC-366; first compound 0.8 µM): 0.653
- relative viability (HCC-366; first compound 2.53 µM): 1.02
- relative viability (NCI-H2009; first compound 0.08 µM): 0.921
- relative viability (NCI-H2009; first compound 0.253 µM): 0.82
- relative viability (NCI-H2009; first compound 0.8 µM): 1
- relative viability (NCI-H2009; first compound 2.53 µM): 1.02
- relative viability (LXF-289; first compound 0.08 µM): 0.873
- relative viability (LXF-289; first compound 0.253 µM): 0.886
- relative viability (LXF-289; first compound 0.8 µM): 0.93
- relative viability (LXF-289; first compound 2.53 µM): 0.878
- relative viability (NCI-H1793; first compound 0.08 µM): 0.903
- relative viability (NCI-H1793; first compound 0.253 µM): 0.645
- relative viability (NCI-H1793; first compound 0.8 µM): 0.596
- relative viability (NCI-H1793; first compound 2.53 µM): 0.938
- relative viability (NCI-H1792; first compound 0.08 µM): 1.01
- relative viability (NCI-H1792; first compound 0.253 µM): 0.896
- relative viability (NCI-H1792; first compound 0.8 µM): 0.816
- relative viability (NCI-H1792; first compound 2.53 µM): 0.848
